Patent publication US20230348398A1 (Hoffmann-La Roche Inc., priority 2020, published 2023)
pIC50: −log10 of the molar value.

The molecules below were run against human cGAS (residues 161-522) (Homo sapiens (Human), UniProt Q8N884) (assay: Malachite Green assay to measure cGAS activity (coupled enzymatic assay, phosphate detection)). Conditions: recombinant human cGAS (residues 161-522) 25 nM, 80 μM GTP, 100 nM ISD, 4 hour at RT, absorbance 620 nm.
Assay type: biochemical
Experimental: Malachite Green Assay to Measure cGAS Activity Compounds were tested for cGAS inhibition in a coupled enzymatic assay based on Phosphate detection by Malachite Green. Final assay conditions were 20 mM TRIS pH 7.5 (Applichem), 5 mM MgCl2 (Sigma) and 0.01% BSA (Sigma) supplemented with […] (Sigma), 80 μM GTP (Sigma) and 100 nM Interferon Stimulating DNA (ISD) (Microsynth). Recombinantly expressed purified human cGAS (residues 161-522) was used at 25 nM. All compounds were prepared as 10 mM stock solutions in DMSO and a 16 pt dilution series in DMSO with a dilution factor of 2.5 was prepared. 1 μL of DMSO dilution series was transferred to 32.3 μL reaction buffer, mixed by pipetting up/down, spun for 1 minute at 3000 rpm and was visually inspected for precipitation. 5 μL of 3-fold enzyme stock solution were transferred to an empty 384-well Black/Clear Flat Bottom Polystyrene NBS (Corning) rows 3-24. Rows 1-2 were filled with assay buffer. Plates were spun 10 seconds at 1000 rpm (164×g). 5 μL of compound intermediate dilution was added and mixed by pipetting up/down to rows 3-24. Rows 1-2 were filled with 3.1% DMSO assay buffer. Plates were spun 10 seconds at 1000 rpm (164×g). 5 μL 3-fold Nucleotide/DNA mix was added to all wells to start the reaction. Plates were spun 10 seconds at 1000 rpm (164×g) and incubated for 4 hour at room temperature (RT) in the dark. 5 μL 4 U/mL PPase (Sigma) were added to all wells. Plates spun 10 seconds at 1000 rpm (164×g). 10 μL BioMol green Solution (Enzo Life Sciences) was added to all wells. Plates spun 10 seconds at 1000 rpm (164×g) and incubated 30 minutes at RT in the dark. Absorbance data was collected 620 nm on an EnVision Multilable Reader (Perkin Elmer) and the following measurement settings were used: excitation filter photometric was 620 nm; excitation from the top; measurement height was 1 mm; number of flashes was 30; number of flashes integrated was 1. All plates are checked for abnormalities and outliers in the Blank Control (no protein, row 1) and the Neutral Control (no compound, row 2) are excluded using the 3*SD rule. Data was normalized to 0 and 100% by Blank and Neutral Control and each curve was fitted and judged using the 4 parameter logistic equation to determine the IC50 for cGAS inhibition. Table 1 provides IC50 values (μM) for cGAS inhibition obtained for particular examples of the present invention as measured by the above-described assay.

human cGAS (residues 161-522), sequence (Q8N884 161-522): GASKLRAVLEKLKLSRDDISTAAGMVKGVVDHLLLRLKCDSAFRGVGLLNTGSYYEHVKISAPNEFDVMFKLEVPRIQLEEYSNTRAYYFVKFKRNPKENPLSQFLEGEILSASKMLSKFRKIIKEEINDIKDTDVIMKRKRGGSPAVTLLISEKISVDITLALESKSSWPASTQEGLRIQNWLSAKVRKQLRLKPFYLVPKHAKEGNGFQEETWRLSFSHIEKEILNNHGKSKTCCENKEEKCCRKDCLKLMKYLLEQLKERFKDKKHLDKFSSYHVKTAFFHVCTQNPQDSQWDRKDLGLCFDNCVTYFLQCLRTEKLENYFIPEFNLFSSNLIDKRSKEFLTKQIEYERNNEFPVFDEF

Compound	pIC50
O=C(O)c1cc(-c2ccc(C3CC3)cc2Cl)cc2[nH]cnc12 [Example 1, 6-(2-Chloro-4-cyclopropylphenyl)-1-benzimidazole-4-carboxylic acid]	5.33
Cc1cc(Cl)c(-c2cc(C(=O)O)c3nc[nH]c3c2)cc1F [Example 2, 6-(2-Chloro-5-fluoro-4-methylphenyl)-1H-benzo[d]imidazole-4-carboxylic acid]	6.27
Cc1ccc(-c2cc(C(=O)O)c3nc[nH]c3c2)c(Cl)c1 [Example 3, 6-(2-Chloro-4-methylphenyl)-1H-benzo[d]imidazole-4-carboxylic acid]	6.26
CCOc1ccc(-c2cc(C(=O)O)c3nc[nH]c3c2)c(Cl)c1 [Example 4, 6-(2-Chloro-4-ethoxyphenyl)-1H-benzo[d]imidazole-4-carboxylic acid]	5.36
O=C(O)c1cc(-c2ccc(C(F)(F)F)cc2Cl)cc2[nH]cnc12 [Example 5, 6-(2-Chloro-4-(trifluoromethyl)phenyl)-1H-benzo[d]imidazole-4-carboxylic acid]	5.49
Cc1cc(Cl)ccc1-c1cc(C(=O)O)c2nc[nH]c2c1 [Example 6, 6-(4-Chloro-2-methylphenyl)-1H-benzo[d]imidazole-4-carboxylic acid]	5.68
Cc1ccc(-c2cc(C(=O)O)c3nc(CN4CCN5C(=O)CCC5C4)[nH]c3c2)c(Cl)c1 (centres unmarked) [Example 7, 6-(2-Chloro-4-methylphenyl)-2-[(6-oxo-1,3,4,7,8,8a-hexahydropyrrolo[1,2-a]pyrazin-2-yl)methyl]-1H-benzimidazole-4-carboxylic acid]	6.59
Cc1ccc(-c2cc(C(=O)O)c3nc(CN4CCN(CC(F)(F)F)CC4)[nH]c3c2)c(Cl)c1 [Example 8, 6-(2-Chloro-4-methylphenyl)-2-((4-(2,2,2-trifluoroethyl)piperazin-1-yl)methyl)-1H-benzo[d]imidazole-4-carboxylic acid]	6.23
Cc1ccc(-c2cc(C(=O)O)c3nc(CN4CCN(C5CC5)CC4)[nH]c3c2)c(Cl)c1 [Example 9, 6-(2-Chloro-4-methylphenyl)-2-[(4-cyclopropylpiperazin-1-yl)methyl]-1H-benzimidazole-4-carboxylic acid]	6.42
Cc1ccc(-c2cc(C(=O)O)c3nc(CN4CCNC(C(F)(F)F)C4)[nH]c3c2)c(Cl)c1 (centres unmarked) [Example 11, 6-(2-Chloro-4-methylphenyl)-2-[[3-(trifluoromethyl)piperazin-1-yl]methyl]-1H-benzimidazole-4-carboxylic acid]	6.22
Cc1ccc(-c2cc(C(=O)O)c3nc(CN4CCN(C)CC4=O)[nH]c3c2)c(Cl)c1 [Example 12, 6-(2-Chloro-4-methylphenyl)-2-[(4-methyl-2-oxopiperazin-1-yl)methyl]-1H-benzimidazole-4-carboxylic acid]	5.94
Cc1ccc(-c2cc(C(=O)O)c3nc(CN4CCC(F)(F)CC4)[nH]c3c2)c(Cl)c1 [Example 15, 6-(2-Chloro-4-methylphenyl)-2-[(4,4-difluoropiperidin-1-yl)methyl]-1H-benzimidazole-4-carboxylic acid]	6.59
CC(=O)N1CCN(Cc2nc3c(C(=O)O)cc(-c4ccc(C)cc4Cl)cc3[nH]2)CC1 [Example 16, 2-[(4-Acetylpiperazin-1-yl)methyl]-6-(2-chloro-4-methylphenyl)-1H-benzimidazole-4-carboxylic acid]	5.82
Cc1ccc(-c2cc(C(=O)O)c3nc(CN4CCNC(=O)C4)[nH]c3c2)c(Cl)c1 [Example 20, 6-(2-Chloro-4-methylphenyl)-2-[(3-oxopiperazin-1-yl)methyl]-1H-benzimidazole-4-carboxylic acid]	6.23
Cc1ccc(-c2cc(C(=O)O)c3nc(CN4CCC(O)CC4)[nH]c3c2)c(Cl)c1 [Example 21, 6-(2-Chloro-4-methylphenyl)-2-[(4-hydroxypiperidin-1-yl)methyl]-1H-benzimidazole-4-carboxylic acid]	6.39
Cc1ccc(-c2cc(C(=O)O)c3nc(CN4CCN(C)CC4)[nH]c3c2)c(Cl)c1 [Example 22, 6-(2-Chloro-4-methylphenyl)-2-[(4-methylpiperazin-1-yl)methyl]-1-benzimidazole-4-carboxylic acid]	6.89
CCN(CC)Cc1nc2c(C(=O)O)cc(-c3ccc(C)cc3Cl)cc2[nH]1 [Example 23, 6-(2-Chloro-4-methylphenyl)-2-(diethylaminomethyl)-1-benzimidazole-4-carboxylic acid]	6.32
Cc1ccc(-c2cc(C(=O)O)c3nc(CN4CCCCC4)[nH]c3c2)c(Cl)c1 [Example 24, 6-(2-Chloro-4-methylphenyl)-2-(piperidin-1-ylmethyl)-1H-benzimidazole-4-carboxylic acid]	6.44
Cc1ccc(-c2cc(C(=O)O)c3nc(CN4CCOCC4)[nH]c3c2)c(Cl)c1 [Example 28, 6-(2-Chloro-4-methylphenyl)-2-(morpholin-4-ylmethyl)-1H-benzimidazole-4-carboxylic acid]	6.46
Cc1ccc(-c2cc(C(=O)O)c3nc(C(F)(F)F)[nH]c3c2)c(Cl)c1 [Example 30, 6-(2-Chloro-4-methylphenyl)-2-(trifluoromethyl)-1H-benzimidazole-4-carboxylic acid]	5.52
Cc1ccc(-c2cc(C(=O)O)c3nc(C)[nH]c3c2)c(Cl)c1 [Example 32]	5.62

More lines, now with the values ahead:

pIC50	Compound
6.29	Cc1ccc(-c2cc(C(=O)O)c3nc(CN4CCN(Cc5ccccc5)C(=O)C4)[nH]c3c2)c(Cl)c1 [Example 10, 2-[(4-Benzyl-3-oxopiperazin-1-yl)methyl]-6-(2-chloro-4-methylphenyl)-1H-benzimidazole-4-carboxylic acid]
6.26	Cc1ccc(-c2cc(C(=O)O)c3nc(CO)[nH]c3c2)c(Cl)c1 [Example 13, 6-(2-Chloro-4-methylphenyl)-2-(hydroxymethyl)-1H-benzimidazole-4-carboxylic acid]
5.94	Cc1ccc(-c2cc(C(=O)O)c3nc(Nc4ccccc4)[nH]c3c2)c(Cl)c1 [Example 14, 6-(2-Chloro-4-methylphenyl)-2-(phenylamino)-1H-benzo[d]imidazole-4-carboxylic acid]
5.91	Cc1ccc(-c2cc(C(=O)O)c3nc(CN(C)c4ccccc4)[nH]c3c2)c(Cl)c1 [Example 17, 6-(2-Chloro-4-methylphenyl)-2-[(N-methylanilino)methyl]-1H-benzimidazole-4-carboxylic acid]
6.85	Cc1ccc(-c2cc(C(=O)O)c3nc(CN4CCN(Cc5ccccc5)CC4)[nH]c3c2)c(Cl)c1 [Example 18, 2-[(4-Benzylpiperazin-1-yl)methyl]-6-(2-chloro-4-methylphenyl)-1H-benzimidazole-4-carboxylic acid]
5.90	Cc1ccc(-c2cc(C(=O)O)c3nc(CN4CCN(c5ccccc5)CC4)[nH]c3c2)c(Cl)c1 [Example 19, 6-(2-Chloro-4-methylphenyl)-2-[(4-phenylpiperazin-1-yl)methyl]-1H-benzimidazole-4-carboxylic acid]
6.16	Cc1ccc(-c2cc(C(=O)O)c3nc(CNc4ccccc4)[nH]c3c2)c(Cl)c1 [Example 25, 2-(Anilinomethyl)-6-(2-chloro-4-methylphenyl)-1H-benzimidazole-4-carboxylic acid]
5.99	Cc1ccc(-c2cc(C(=O)O)c3nc(Cc4ccccc4)[nH]c3c2)c(Cl)c1 [Example 26, 2-Benzyl-6-(2-chloro-4-methylphenyl)-1H-benzo[d]imidazole-4-carboxylic acid]
5.83	Cc1ccc(-c2cc(C(=O)O)c3nc(Cc4ccc(Cl)cc4)[nH]c3c2)c(Cl)c1 [Example 27, 6-(2-Chloro-4-methylphenyl)-2-[(4-chlorophenyl)methyl]-1H-benzimidazole-4-carboxylic acid]
6.23	Cc1ccc(-c2cc(C(=O)O)c3nc(CN(C)C)[nH]c3c2)c(Cl)c1 [Example 29, 6-(2-Chloro-4-methylphenyl)-2-[(dimethylamino)methyl]-1H-benzimidazole-4-carboxylic acid]
6.08	Cc1ccc(-c2cc(C(=O)O)c3nc(NCc4ccccc4)[nH]c3c2)c(Cl)c1 [Example 31, 2-(Benzylamino)-6-(2-chloro-4-methylphenyl)-1H-benzo[d]imidazole-4-carboxylic acid]
